Data on eleven compounds can be found in publication PMC8944975, “Secretin Receptor as a Target in Gastrointestinal Cancer: Expression Analysis and Ligand Development” (Biomedicines, 2022).

Like-named read-outs stand apart in the source and are kept apart here.

The assay addresses human SCTR (Homo sapiens, UniProt P47872). In words: agonist-induced β-arr2-GFP translocation. On the set-up: expressed in transfected cells; host or cells: U2OS (human osteosarcoma), stably co-transfected with β-arrestin2-GFP. The note with it: for β-arrestin2-GFP agonism efficacy: % of wild-type secretin; for EC50: mean of at least three independent experiments in duplicates. It counts as cell-based. The text has this:
U2OS-SCTR/β-arr2-GFP: human osteosarcoma cell line U2OS (purchased from ATCC/LGC Standards, Wesel, Germany) were stably transfected with plasmids encoding SCTR (Homo sapiens) and the fusion protein β-arrestin2-green fluorescent protein (GFP) (Rattus norvegicus-Aequorea victoria) (β-arr2-GFP).
To evaluate reactivity of human SCTR exposed to different ligand variants, intracellular translocation of a fusion protein of β-arrestin2 and green fluorescent protein was utilized. For evaluation of activation, receptor-mediated recruitment of cytoplasmic β-arr2-GFP was monitored through its translocation into condensed intracellular vesicles. The extent of translocation events was quantified by determining the increasing granularization of the intracellular fluorescence utilizing an automated high-throughput microscope in combination with computational algorithms to estimate potency (EC50) and efficacy, thus characterizing ligand-SCTR interaction. U2OS-SCTR/β-arr2-GFP cells were seeded in 96-well cell culture plates to 60–80% confluence. On the following day, preceding stimulation, cells were incubated for one hour in serum-free medium. Ligand variants were applied as serial dilutions in assay buffer C1. After preincubation, supernatant was discarded by tapping plates overhead repeatedly. For stimulation, 50 µL of ligand dilution was applied per well in duplicates and incubated for 20 min at 37 °C. Successively, cells were fixed by applying 4% buffered formaldehyde (Herbeta Arzneimittel, Berlin, Germany) for 10 min at room temperature and consecutively permeabilized for 10 min at room temperature with 0.1% TritonX-100 in PBS, containing DAPI (4′,6-Diamidin-2-phenylindol, SigmaAldrich, Deisenhofen, Germany, 1 µg/mL) to counterstain nuclei. Microscopic images were recorded by an IN Cell Analyzer 1000 (GE Healthcare, Reading, UK) with 20× magnification at 5 frames per well in a 96-well format. Image processing was performed with IN Cell Investigator software (GE Healthcare, Reading, UK), applying the provided granularity algorithm. The output of the analysis was indicated as vesicle area/cell and was utilized for calculation of concentration–response curves. Parameters derived from curve fitting included the concentration of half-maximal activity (EC50), and intrinsic activity. Intrinsic activity was normalized defining reaction to non-modified wild type secretin as the 100% curve maximum value.

Setting [1] is: Supplementary Tables S1 and S2, decimal comma, '-' not detectable (Figure 4).
Where [2] appears, read: Supplementary Tables S1 and S2, U2OS-SCTR/β-arr2-GFP cells, 20 min at 37 °C, decimal comma, '-' not detectable (Figure 4), read-out: β-arrestin2-GFP agonism potency.

human SCTR, sequence (P47872 23-440): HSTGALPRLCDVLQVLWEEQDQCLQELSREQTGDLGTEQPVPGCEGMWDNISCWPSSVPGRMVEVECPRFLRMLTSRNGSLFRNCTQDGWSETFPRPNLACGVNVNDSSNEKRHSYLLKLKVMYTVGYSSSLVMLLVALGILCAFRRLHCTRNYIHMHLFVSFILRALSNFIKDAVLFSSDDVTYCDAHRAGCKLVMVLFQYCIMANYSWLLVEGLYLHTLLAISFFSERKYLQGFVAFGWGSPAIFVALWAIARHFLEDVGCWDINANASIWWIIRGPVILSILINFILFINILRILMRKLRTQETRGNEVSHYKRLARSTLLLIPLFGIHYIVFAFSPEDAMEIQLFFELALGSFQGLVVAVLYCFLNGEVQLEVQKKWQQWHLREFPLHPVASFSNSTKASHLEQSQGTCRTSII

Take `CC(C)C[C@H](NC(=O)CNC(=O)[C@H](CCC(N)=O)NC(=O)[C@H](CC(C)C)NC(=O)[C@H](CC(C)C)NC(=O)[C@H](CCCNC(=N)N)NC(=O)[C@H](CCC(N)=O)NC(=O)[C@H](CC(C)C)NC(=O)[C@H](CCCNC(=N)N)NC(=O)[C@H](C)NC(=O)CNC(=O)[C@H](CCC(=O)O)NC(=O)[C@H](CCCCN)NC(=O)[C@H](CC(C)C)NC(=O)[C@H](CCCNC(=N)N)NC(=O)[C@H](CO)NC(=O)[C@H](CC(C)C)NC(=O)[C@H](CCC(=O)O)NC(=O)[C@H](CO)NC(=O)[C@@H](NC(=O)[C@H](Cc1ccccc1)NC(=O)[C@@H](NC(=O)CNC(=O)[C@H](CC(=O)O)NC(=O)[C@H](CO)NC(=O)[C@@H](N)Cc1c[nH]cn1)[C@@H](C)O)[C@@H](C)O)C(=O)N[C@H](C(=O)O)C(C)C` [Peptide 68]: under setting [1], the β-arrestin2-GFP agonism efficacy is reported as 114,30 % Sec. For the same compound, the EC50 under setting [2] worked out at 9.53 nM.
With “HSDGTFtSELSRLREGARLQRLLQGLV [Peptide 91, D-amino acid substitution variant of human secretin]”, the β-arrestin2-GFP agonism efficacy under setting [1] is on record as 98,33 % Sec.
As for `CC(C)C[C@H](NC(=O)CNC(=O)[C@H](CCC(N)=O)NC(=O)[C@H](CC(C)C)NC(=O)[C@H](CC(C)C)NC(=O)[C@H](CCCNC(=N)N)NC(=O)[C@H](CCC(N)=O)NC(=O)[C@H](CC(C)C)NC(=O)[C@H](CCCNC(=N)N)NC(=O)[C@H](C)NC(=O)CNC(=O)[C@H](CCC(=O)O)NC(=O)[C@H](CCCNC(=N)N)NC(=O)[C@H](CC(C)C)NC(=O)[C@H](CCCNC(=N)N)NC(=O)[C@H](CO)NC(=O)[C@H](CC(C)C)NC(=O)[C@H](CCC(=O)O)NC(=O)[C@H](CO)NC(=O)[C@@H](NC(=O)[C@H](C)NC(=O)[C@@H](NC(=O)CNC(=O)[C@H](CC(=O)O)NC(=O)[C@H](CO)NC(=O)[C@@H](N)Cc1c[nH]cn1)[C@@H](C)O)[C@@H](C)O)C(=O)N[C@H](C(=O)O)C(C)C` [Peptide 7], the EC50 (U2OS-SCTR/β-arr2-GFP cells, ligand 20 min at 37 °C, vesicle area/cell by automated microscopy, read-out: EC50, β-arr2-GFP translocation assay) was determined as 155 ± 30.8 nM. Also, the Emax (U2OS-SCTR/β-arr2-GFP cells, normalized to wild type secretin = 100% curve maximum, read-out: intrinsic activity (efficacy), β-arr2-GFP translocation assay) was found to be 61.8 ± 4.9%.
Turning to `CC(C)C[C@H](NC(=O)CNC(=O)[C@H](CCC(N)=O)NC(=O)[C@H](CC(C)C)NC(=O)[C@H](CC(C)C)NC(=O)[C@H](CCCNC(=N)N)NC(=O)[C@H](CCC(N)=O)NC(=O)[C@H](CC(C)C)NC(=O)[C@H](CCCNC(=N)N)NC(=O)[C@H](C)NC(=O)CNC(=O)[C@H](CCC(=O)O)NC(=O)[C@H](CCCNC(=N)N)NC(=O)[C@H](CC(C)C)NC(=O)[C@H](CCCNC(=N)N)NC(=O)[C@H](CO)NC(=O)[C@H](CC(C)C)NC(=O)[C@H](CCC(=O)O)NC(=O)[C@H](CO)NC(=O)[C@@H](NC(=O)[C@H](Cc1ccccc1)NC(=O)[C@@H](NC(=O)CNC(=O)[C@@H](CC(=O)O)NC(=O)[C@H](CO)NC(=O)[C@@H](N)Cc1c[nH]cn1)[C@@H](C)O)[C@@H](C)O)C(=O)N[C@H](C(=O)O)C(C)C` [Peptide 88], the β-arrestin2-GFP agonism efficacy under setting [1] is 89,07 % Sec.
As for “GLP-2: structurally related glucagon-like peptide 2 [reference compound]”, the “SCTR activation (agonism) in the β-arr2-GFP translocation assay, in words” value (U2OS-SCTR/β-arr2-GFP cells) is recorded as “no SCTR activation”.
As to `CC(C)C[C@H](NC(=O)CNC(=O)[C@H](CCC(N)=O)NC(=O)[C@H](CC(C)C)NC(=O)[C@H](CC(C)C)NC(=O)[C@H](CCCNC(=N)N)NC(=O)[C@H](CCC(=O)O)NC(=O)[C@H](CC(C)C)NC(=O)[C@H](CCCNC(=N)N)NC(=O)[C@H](C)NC(=O)CNC(=O)[C@H](CCC(=O)O)NC(=O)[C@H](CCCNC(=N)N)NC(=O)[C@H](CC(C)C)NC(=O)[C@H](CCCNC(=N)N)NC(=O)[C@H](CO)NC(=O)[C@H](CC(C)C)NC(=O)[C@H](CCC(=O)O)NC(=O)[C@H](CO)NC(=O)[C@@H](NC(=O)[C@H](Cc1ccccc1)NC(=O)[C@@H](NC(=O)CNC(=O)[C@H](CC(=O)O)NC(=O)[C@H](CO)NC(=O)[C@@H](N)Cc1c[nH]cn1)[C@@H](C)O)[C@@H](C)O)C(=O)N[C@H](C(=O)O)C(C)C` [Peptide 71], under setting [1], the β-arrestin2-GFP agonism efficacy is on record as 100,73 % Sec. In addition, the EC50 under setting [2] amounted to 2.28 nM.
On to `CC(C)C[C@H](NC(=O)[C@H](CCCNC(=N)N)NC(=O)[C@H](C)NC(=O)CNC(=O)[C@H](CCC(=O)O)NC(=O)[C@H](CCCNC(=N)N)NC(=O)[C@H](CC(C)C)NC(=O)[C@H](CCCNC(=N)N)NC(=O)[C@H](CO)NC(=O)[C@H](CC(C)C)NC(=O)[C@H](CCC(=O)O)NC(=O)[C@H](CO)NC(=O)[C@@H](NC(=O)[C@H](Cc1ccccc1)NC(=O)[C@@H](NC(=O)CNC(=O)[C@H](CC(=O)O)NC(=O)[C@H](CO)NC(=O)[C@@H](N)Cc1c[nH]cn1)[C@@H](C)O)[C@@H](C)O)C(=O)N[C@@H](CCC(N)=O)C(=O)N[C@@H](CCCNC(=N)N)C(=O)N[C@@H](CC(C)C)C(=O)N[C@@H](CC(C)C)C(=O)N[C@@H](CCC(N)=O)C(=O)NCC(=O)N[C@H](CC(C)C)C(=O)N[C@H](C(=O)O)C(C)C` [Peptide 95], for which the β-arrestin2-GFP agonism efficacy under setting [1] was 101,90 % Sec.
Turning to `CC(C)C[C@H](NC(=O)CNC(=O)[C@H](CCC(N)=O)NC(=O)[C@H](CC(C)C)NC(=O)[C@H](CC(C)C)NC(=O)[C@H](CCCNC(=N)N)NC(=O)[C@H](CCC(N)=O)NC(=O)[C@H](CC(C)C)NC(=O)[C@H](CCCNC(=N)N)NC(=O)[C@H](CCC(=O)O)NC(=O)CNC(=O)[C@H](CCC(=O)O)NC(=O)[C@H](CCCNC(=N)N)NC(=O)[C@H](CC(C)C)NC(=O)[C@H](CCCNC(=N)N)NC(=O)[C@H](CO)NC(=O)[C@H](CC(C)C)NC(=O)[C@H](CCC(=O)O)NC(=O)[C@H](CO)NC(=O)[C@@H](NC(=O)[C@H](Cc1ccccc1)NC(=O)[C@@H](NC(=O)CNC(=O)[C@H](CC(=O)O)NC(=O)[C@H](CO)NC(=O)[C@@H](N)Cc1c[nH]cn1)[C@@H](C)O)[C@@H](C)O)C(=O)N[C@H](C(=O)O)C(C)C` [Peptide 70], under setting [1], the β-arrestin2-GFP agonism efficacy is 104,77 % Sec. Further, the EC50 under setting [2] turned out to be 2.26 nM.
On the same counts, the results for `CC(C)C[C@H](NC(=O)[C@H](CCCNC(=N)N)NC(=O)[C@H](C)NC(=O)CNC(=O)[C@H](CCC(=O)O)NC(=O)[C@H](CCCNC(=N)N)NC(=O)[C@H](CC(C)C)NC(=O)[C@H](CCCNC(=N)N)NC(=O)[C@H](CO)NC(=O)[C@H](CC(C)C)NC(=O)[C@H](CCC(=O)O)NC(=O)[C@H](CO)NC(=O)[C@@H](NC(=O)[C@H](Cc1ccccc1)NC(=O)[C@@H](NC(=O)CNC(=O)[C@H](CC(=O)O)NC(=O)[C@H](CO)NC(=O)[C@@H](N)Cc1c[nH]cn1)[C@@H](C)O)[C@@H](C)O)C(=O)N[C@@H](CCC(N)=O)C(=O)N[C@@H](CCCNC(=N)N)C(=O)N[C@@H](CC(C)C)C(=O)N[C@@H](CC(C)C)C(=O)N[C@@H](CCC(N)=O)C(=O)N1CCC[C@H]1C(=O)N[C@@H](CC(C)C)C(=O)N[C@H](C(=O)O)C(C)C` [Peptide 83] are 103,17 % Sec and 22.1 nM.
For `CC(C)C[C@H](NC(=O)CNC(=O)[C@H](CCC(N)=O)NC(=O)[C@H](CC(C)C)NC(=O)[C@H](CC(C)C)NC(=O)[C@H](CCCNC(=N)N)NC(=O)[C@H](CCC(N)=O)NC(=O)[C@H](CC(C)C)NC(=O)[C@H](CCCNC(=N)N)NC(=O)[C@H](C)NC(=O)[C@H](CC(C)C)NC(=O)[C@H](CCC(=O)O)NC(=O)[C@H](CCCNC(=N)N)NC(=O)[C@H](CC(C)C)NC(=O)[C@H](CCCNC(=N)N)NC(=O)[C@H](CO)NC(=O)[C@H](CC(C)C)NC(=O)[C@H](CCC(=O)O)NC(=O)[C@H](CO)NC(=O)[C@@H](NC(=O)[C@H](Cc1ccccc1)NC(=O)[C@@H](NC(=O)CNC(=O)[C@H](CC(=O)O)NC(=O)[C@H](CO)NC(=O)[C@@H](N)Cc1c[nH]cn1)[C@@H](C)O)[C@@H](C)O)C(=O)N[C@H](C(=O)O)C(C)C` [Peptide 72] the same measures were 104,60 % Sec and 3.32 nM.
For the compound `CC(C)C[C@H](NC(=O)[C@H](CCCNC(=N)N)NC(=O)[C@H](C)NC(=O)CNC(=O)[C@H](CCC(=O)O)NC(=O)[C@H](CCCNC(=N)N)NC(=O)[C@H](CC(C)C)NC(=O)[C@H](CCCNC(=N)N)NC(=O)[C@H](CO)NC(=O)[C@H](CC(C)C)NC(=O)[C@H](CCC(=O)O)NC(=O)[C@H](CO)NC(=O)[C@@H](NC(=O)[C@H](Cc1ccccc1)NC(=O)[C@@H](NC(=O)CNC(=O)[C@H](CC(=O)O)NC(=O)[C@H](CO)NC(=O)[C@@H](N)Cc1c[nH]cn1)[C@@H](C)O)[C@@H](C)O)C(=O)N[C@@H](CCC(N)=O)C(=O)N[C@@H](CCCNC(=N)N)C(=O)N[C@@H](CC(C)C)C(=O)N[C@@H](CC(C)C)C(=O)N[C@@H](CCC(N)=O)C(=O)NCC(=O)N[C@@H](CC(C)C)C(=O)N1CCC[C@H]1C(=O)O` [Peptide 85], the β-arrestin2-GFP agonism efficacy under setting [1] was 100,47 % Sec. In addition, the EC50 under setting [2] is 5.19 nM.
